Assays:
[1] = target: T1, αvβ5 (Homo sapiens, UniProt P06756+P18084); assay: 293/b5 cell adhesion assay for αvβ5 function; assay type: cell-based; conditions: 293/b5 cells, adhesion to human vitronectin
T1 construct: expressed in transfected cells; host or cells: HEK 293 (293/b5)
Experimental: 293/b5 Cell Adhesion Assay for αvβ5 Function.
(§1) Purified human vitronectin (Calbiochem/EMD Biosciences) diluted to 0.25 μg/ml in TS buffer (25 mM Tris 7.4, 150 mM NaCl) was added to wells (100 μl/well) of a 96-well microtiter plate (Immulon 2HB 96-well; VWR Scientific) and incubated overnight at 4° C. The solution in each well was then replaced with 200 μl of blocking buffer (TS with 1% bovine serum albumin), and the plate incubated for 1 hr at 37° C. Compounds were diluted in test tubes to 2× the peak testing concentration in cell adhesion buffer consisting of Hanks Buffered Salts Solution (HBSS, cation-free, Sigma), 0.1% bovine serum albumin, 25 mM HEPES, and 200 μM MnCl2. […] The cells were washed with the cell adhesion buffer, counted using a hemocytometer, centrifuged and resuspended in cell adhesion buffer at 3×10^6 cells/ml. […] Remaining attached cells were detected by addition of 100 μl/well p-nitrophenylphosphate (Sigma) solution (15 mg tablet dissolved in 25 ml 50 mM NaAcetate, pH5; 0.5% Triton-X-100), incubation for 30 min at 37° C., and then addition of 50 μl/well 1N NaOH to stop the enzyme reaction. Plates were read by colorimetric detection at 405 nm wavelength using a Tecan Safire II plate reader. Concentration-response curves were constructed by non-linear regression (best fit) analysis, and IC50 values were calculated for each compound. […]

[2] = target: T2, recombinant human biotinylated integrin αvβ8 (Homo sapiens, UniProt P06756+P26012); assay: Solid phase receptor assay for αvβ8 function; conditions: purified integrin binding to LAP-coated plate
T2 construct: biotin (biotinylated heterodimer); purchased R&D Systems
T2 sequence (P06756 31-889 limits assumed): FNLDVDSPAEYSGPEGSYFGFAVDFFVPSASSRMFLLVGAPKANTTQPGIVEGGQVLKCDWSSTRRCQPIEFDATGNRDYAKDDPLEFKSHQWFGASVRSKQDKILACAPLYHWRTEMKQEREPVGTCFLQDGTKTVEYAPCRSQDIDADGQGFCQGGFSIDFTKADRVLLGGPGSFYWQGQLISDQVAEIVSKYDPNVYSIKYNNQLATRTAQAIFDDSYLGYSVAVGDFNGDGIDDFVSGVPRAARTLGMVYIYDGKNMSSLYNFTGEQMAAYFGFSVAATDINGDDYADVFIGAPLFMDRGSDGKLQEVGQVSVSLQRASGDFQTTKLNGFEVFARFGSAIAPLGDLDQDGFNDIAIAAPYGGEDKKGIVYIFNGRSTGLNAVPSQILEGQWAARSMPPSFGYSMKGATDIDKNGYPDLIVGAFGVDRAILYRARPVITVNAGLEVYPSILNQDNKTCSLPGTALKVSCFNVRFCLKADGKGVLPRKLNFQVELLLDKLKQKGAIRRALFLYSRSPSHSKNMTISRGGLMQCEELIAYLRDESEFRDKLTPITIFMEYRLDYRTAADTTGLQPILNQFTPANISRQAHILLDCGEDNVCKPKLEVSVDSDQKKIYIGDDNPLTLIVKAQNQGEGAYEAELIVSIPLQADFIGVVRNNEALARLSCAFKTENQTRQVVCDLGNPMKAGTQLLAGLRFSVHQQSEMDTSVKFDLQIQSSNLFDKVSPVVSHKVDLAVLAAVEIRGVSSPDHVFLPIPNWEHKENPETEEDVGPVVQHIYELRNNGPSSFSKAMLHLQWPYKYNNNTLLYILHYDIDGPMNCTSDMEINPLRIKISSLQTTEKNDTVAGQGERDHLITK
T2 sequence (P06756 891-992 partner limits assumed): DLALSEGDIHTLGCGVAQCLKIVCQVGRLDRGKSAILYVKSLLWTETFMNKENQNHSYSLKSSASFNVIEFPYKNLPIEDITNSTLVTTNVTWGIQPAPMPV
T2 sequence (P26012 43-684 limits assumed): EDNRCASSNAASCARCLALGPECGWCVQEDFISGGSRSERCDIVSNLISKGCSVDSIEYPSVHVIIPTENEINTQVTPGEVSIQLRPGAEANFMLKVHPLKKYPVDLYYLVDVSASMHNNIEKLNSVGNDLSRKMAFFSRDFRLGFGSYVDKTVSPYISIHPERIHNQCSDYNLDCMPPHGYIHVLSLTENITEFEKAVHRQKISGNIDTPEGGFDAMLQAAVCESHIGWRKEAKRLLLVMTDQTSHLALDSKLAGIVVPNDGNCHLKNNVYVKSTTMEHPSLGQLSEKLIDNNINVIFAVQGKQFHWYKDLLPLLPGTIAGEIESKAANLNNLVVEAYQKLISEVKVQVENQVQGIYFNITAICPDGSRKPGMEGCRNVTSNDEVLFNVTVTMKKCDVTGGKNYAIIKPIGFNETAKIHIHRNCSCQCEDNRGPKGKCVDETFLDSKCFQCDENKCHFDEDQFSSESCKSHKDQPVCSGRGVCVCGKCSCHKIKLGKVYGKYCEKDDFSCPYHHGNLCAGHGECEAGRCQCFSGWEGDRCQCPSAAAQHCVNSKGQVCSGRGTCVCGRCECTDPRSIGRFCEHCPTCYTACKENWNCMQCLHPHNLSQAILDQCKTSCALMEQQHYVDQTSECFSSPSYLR
Experimental: Solid Phase Receptor Assay for αvβ8 Function.
Purified human LAP protein (R&D Systems, Inc) diluted to 0.5 μg/ml in TBS buffer (25 mM Tris 7.4, 137 mM NaCl, 2.7 mM KCl, 1 mM CaCl2, 1 mM MgCl2, 1 mM MnCl2) was added to wells (100 μl/well) of a 96-well half-well transparent microtiter plate (Costar 3690), and incubated overnight at 4° C. Wells were washed 3 times with 150 μl TBS, and 200 μl of blocking buffer (TBS with 1% bovine serum albumin) were added. The plate was incubated for 1 hr at 37° C., and then washed 3× with TBS/0.1% bovine serum albumin. Purified recombinant human biotinylated integrin αvβ8 (R&D Systems) was diluted to 0.1 μg/ml in TBS/0.1% bovine serum albumin. Compounds were diluted into the integrin solution and then 50 μl was added to empty wells of the washed LAP-coated plate, according to a standard template, with each sample repeated in triplicate. After incubation for one hour at room temperature, the plate was washed 3× with 150 μl of TBS/0.1% BSA. 50 μl of streptavidin-conjugated horseradish peroxidase (R&D Systems) was added to the wells, and the plate incubated for 20 min at room temperature. […] Plates were read by colorimetric detection at 650 nm wavelength using a Tecan Safire II plate reader. Concentration-response curves were constructed by non-linear regression (best fit) analysis, and IC50 values were calculated for each compound.

[3] = target: T3, α5β1 (Homo sapiens, UniProt P05556+P08648); assay: K562 cell adhesion assay for α5β1 function; assay type: cell-based; conditions: K562 cells, adhesion to human plasma fibronectin
T3 construct: K562 cells (American Type Culture Collection, Manassas, Va.) which naturally express high levels of α5β1; endogenous in cells; host or cells: K562 (human erythroleukemia, ATCC)
T3 sequence (P08648 42-894 limits assumed): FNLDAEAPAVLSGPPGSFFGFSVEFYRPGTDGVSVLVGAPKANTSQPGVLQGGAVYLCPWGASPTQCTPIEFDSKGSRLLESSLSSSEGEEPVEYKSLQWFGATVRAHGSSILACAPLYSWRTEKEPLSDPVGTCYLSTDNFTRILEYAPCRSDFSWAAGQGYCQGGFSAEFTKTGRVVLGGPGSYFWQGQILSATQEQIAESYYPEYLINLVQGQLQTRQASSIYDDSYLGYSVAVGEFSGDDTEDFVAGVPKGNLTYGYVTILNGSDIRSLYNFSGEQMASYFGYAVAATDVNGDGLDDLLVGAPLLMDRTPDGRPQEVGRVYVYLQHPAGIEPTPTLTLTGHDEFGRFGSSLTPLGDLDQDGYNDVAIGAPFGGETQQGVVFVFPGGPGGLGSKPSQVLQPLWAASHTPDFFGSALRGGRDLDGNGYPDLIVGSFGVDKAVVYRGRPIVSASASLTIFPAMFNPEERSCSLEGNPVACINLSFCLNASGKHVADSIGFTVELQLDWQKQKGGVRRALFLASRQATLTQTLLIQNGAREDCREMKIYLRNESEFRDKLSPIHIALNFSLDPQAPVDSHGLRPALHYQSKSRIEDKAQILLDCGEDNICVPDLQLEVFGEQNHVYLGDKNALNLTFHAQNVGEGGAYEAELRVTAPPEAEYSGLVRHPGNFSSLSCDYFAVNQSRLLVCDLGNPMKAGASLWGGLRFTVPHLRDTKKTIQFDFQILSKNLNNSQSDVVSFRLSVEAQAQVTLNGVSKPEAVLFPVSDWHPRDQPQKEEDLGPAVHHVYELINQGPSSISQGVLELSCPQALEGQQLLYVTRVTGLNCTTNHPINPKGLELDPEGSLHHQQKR
T3 sequence (P08648 895-1049 partner limits assumed): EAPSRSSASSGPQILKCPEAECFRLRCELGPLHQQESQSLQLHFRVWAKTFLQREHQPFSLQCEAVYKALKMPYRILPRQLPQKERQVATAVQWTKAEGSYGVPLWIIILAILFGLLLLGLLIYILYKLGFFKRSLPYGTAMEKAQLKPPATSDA
T3 sequence (P05556 21-798): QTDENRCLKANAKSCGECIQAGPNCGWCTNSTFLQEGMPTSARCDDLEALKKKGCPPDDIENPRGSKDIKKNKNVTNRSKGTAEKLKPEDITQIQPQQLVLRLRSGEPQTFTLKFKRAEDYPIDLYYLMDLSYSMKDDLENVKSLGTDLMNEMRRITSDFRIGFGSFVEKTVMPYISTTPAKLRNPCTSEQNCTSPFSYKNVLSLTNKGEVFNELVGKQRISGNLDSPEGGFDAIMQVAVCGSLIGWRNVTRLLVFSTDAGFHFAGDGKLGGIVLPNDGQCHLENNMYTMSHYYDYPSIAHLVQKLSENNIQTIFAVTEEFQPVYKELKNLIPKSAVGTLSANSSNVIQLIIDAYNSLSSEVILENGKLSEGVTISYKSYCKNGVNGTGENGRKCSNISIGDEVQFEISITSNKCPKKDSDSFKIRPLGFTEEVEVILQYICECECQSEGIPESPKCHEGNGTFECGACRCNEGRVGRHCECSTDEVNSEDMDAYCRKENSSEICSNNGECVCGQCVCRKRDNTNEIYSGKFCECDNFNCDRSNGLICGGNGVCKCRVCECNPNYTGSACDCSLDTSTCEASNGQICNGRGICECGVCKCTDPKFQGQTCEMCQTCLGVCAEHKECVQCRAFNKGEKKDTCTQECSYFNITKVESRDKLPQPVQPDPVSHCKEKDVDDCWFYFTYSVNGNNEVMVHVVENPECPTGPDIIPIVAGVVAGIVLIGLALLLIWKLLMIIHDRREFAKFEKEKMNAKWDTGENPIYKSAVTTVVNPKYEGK
Experimental: K562 Cell Adhesion Assay for α5β1 Function.
as §1, with “plasma fibronectin” for “vitronectin”, “5” for “0.25”, “pH 5;” for “pH5;”

T1 sequence (P06756 31-889 limits assumed): as the sequence (P06756 31-889 limits assumed) above
T1 sequence (P06756 891-1048 partner limits assumed): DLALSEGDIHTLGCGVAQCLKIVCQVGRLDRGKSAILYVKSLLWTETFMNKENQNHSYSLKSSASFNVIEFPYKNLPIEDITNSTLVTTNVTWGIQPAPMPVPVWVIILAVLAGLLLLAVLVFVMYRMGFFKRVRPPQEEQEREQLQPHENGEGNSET
T1 sequence (P18084 24-799): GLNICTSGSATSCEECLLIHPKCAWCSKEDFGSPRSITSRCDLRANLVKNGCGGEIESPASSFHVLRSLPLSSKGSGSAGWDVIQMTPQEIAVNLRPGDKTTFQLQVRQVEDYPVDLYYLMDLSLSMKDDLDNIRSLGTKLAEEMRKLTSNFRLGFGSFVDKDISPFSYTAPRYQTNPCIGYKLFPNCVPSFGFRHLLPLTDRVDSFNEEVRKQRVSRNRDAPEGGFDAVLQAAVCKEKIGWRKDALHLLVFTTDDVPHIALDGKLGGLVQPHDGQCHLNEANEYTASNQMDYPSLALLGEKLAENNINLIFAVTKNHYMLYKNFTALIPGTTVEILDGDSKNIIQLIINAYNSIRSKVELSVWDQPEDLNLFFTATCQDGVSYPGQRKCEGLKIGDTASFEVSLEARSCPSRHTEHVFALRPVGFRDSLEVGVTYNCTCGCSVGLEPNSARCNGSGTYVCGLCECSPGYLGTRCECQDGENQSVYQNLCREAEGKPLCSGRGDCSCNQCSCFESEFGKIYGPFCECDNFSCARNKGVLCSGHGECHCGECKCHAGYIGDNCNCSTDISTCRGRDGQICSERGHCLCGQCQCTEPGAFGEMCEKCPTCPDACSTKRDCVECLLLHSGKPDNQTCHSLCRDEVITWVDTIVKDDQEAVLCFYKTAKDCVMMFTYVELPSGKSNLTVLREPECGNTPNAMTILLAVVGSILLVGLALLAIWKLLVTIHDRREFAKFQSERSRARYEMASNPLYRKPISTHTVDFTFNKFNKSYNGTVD

`CC(C)(C)c1cc(Br)cc([C@H](CC(=O)O)NC(=O)CNC(=O)c2cc(O)cc(NC3=NCC(O)CN3)c2)c1` (stereo partly drawn) [Example 1, (3S)—N-[3-hydroxy-5-[(1,4,5,6-tetrahydro-5-hydroxy-2-pyrimidinyl)amino]benzoyl]glycyl-3-(3-bromo-5-tert-butylphenyl)-β-alanine] showed an IC50 [1] of 51.7 nM, an IC50 [2] of 0.23 nM and an IC50 [3] of 4.2 nM.

Source: patent publication US8716226B2, “3,5 phenyl-substituted beta amino acid derivatives as integrin antagonists” (Saint Louis University, priority 2012, dated 2014)
